For series [1], the system named is Anas platyrhynchos.
For series [2], the system named is Colinus virginianus.
Series [3] relates to Rattus norvegicus.
Series [4] has as its system Canidae. The settings on record: oral, Dog Other, clinical chemistry.

Bounds are passed on as bounds.

A word on the NOAEL: it is the highest dose or exposure tested at which no adverse effect was seen. As for `COc1cc(C)c(C(=O)c2c(OC)ncc(Cl)c2C)c(OC)c1OC` [Pyriofenone], the NOAEL in series [1] (reproductive, reproduction) turned out to be 119 mg/kg-day; in series [2] (reproduction developmental, reproduction) it was 94 mg/kg-day; in series [3] (chronic, duration: 2 years, hematological), 7.25 mg/kg-day; in series [3] (reproduction developmental, hematological), 64.1 mg/kg-day; in series [3] (subchronic, duration: 90 days, oral, organ weight) it was 17.9 mg/kg-day; in series [4] (chronic, duration: 1 years), 13.7 mg/kg-day. The NOAEL in series [4] (subchronic, duration: 90 days) is 15 mg/kg-day. Besides, the LC50 in series [1] (short-term, oral, feed, mortality) is above 1290 mg/kg-day; in series [2] (acute, oral, diet, mortality), above 980 mg/kg-day. The LD50 in series [2] (acute, oral, mortality) is above 2000 mg/kg-day; in series [3] (acute, oral, mortality), above 2000 mg/kg-day.

Values taken from EPA's ToxValDB 9.5 (doi:10.2903/j.efsa.2013.3147).
